{"source": "ChEMBL document CHEMBL1201862", "about": "“PubChem BioAssay data set” (2004)", "test_in_all_cases": "DTP human tumour cell line panel, 48 h", "key": {"786-0": {"system": "786-0"}, "A498": {"system": "A498"}, "A549": {"system": "A549"}, "ACHN": {"system": "ACHN"}, "CAKI-1": {"system": "CAKI-1"}, "CCRF-CEM": {"system": "CCRF-CEM"}, "COLO 205": {"system": "COLO 205"}, "DLD-1": {"system": "DLD-1"}, "DMS-114": {"system": "DMS-114"}, "DMS-273": {"system": "DMS-273"}, "EKVX": {"system": "EKVX"}, "HCC 2998": {"system": "HCC 2998"}, "HCT-116": {"system": "HCT-116"}, "HCT-15": {"system": "HCT-15"}, "HL-60": {"system": "HL-60"}, "HOP-18": {"system": "HOP-18"}, "HOP-62": {"system": "HOP-62"}, "HOP-92": {"system": "HOP-92"}, "HT-29": {"system": "HT-29"}, "IGROV-1": {"system": "IGROV-1"}, "K562": {"system": "K562"}, "KM-20L2": {"system": "KM-20L2"}, "KM12": {"system": "KM12"}, "LXFL 529": {"system": "LXFL 529"}, "M14": {"system": "M14"}, "M19-MEL": {"system": "M19-MEL"}, "MOLT-4": {"system": "MOLT-4"}, "Malme-3M": {"system": "Malme-3M"}, "NCI-H226": {"system": "NCI-H226"}, "NCI-H23": {"system": "NCI-H23"}, "NCI-H460": {"system": "NCI-H460"}, "NCI-H522": {"system": "NCI-H522"}, "OVCAR-3": {"system": "OVCAR-3"}, "OVCAR-4": {"system": "OVCAR-4"}, "OVCAR-5": {"system": "OVCAR-5"}, "OVCAR-8": {"system": "OVCAR-8"}, "RPMI-8226": {"system": "RPMI-8226"}, "SF-268": {"system": "SF-268"}, "SF-295": {"system": "SF-295"}, "SF-539": {"system": "SF-539"}, "SK-MEL-28": {"system": "SK-MEL-28"}, "SK-MEL-5": {"system": "SK-MEL-5"}, "SK-OV-3": {"system": "SK-OV-3"}, "SN12C": {"system": "SN12C"}, "SNB-19": {"system": "SNB-19"}, "SNB-75": {"system": "SNB-75"}, "SNB-78": {"system": "SNB-78"}, "SW-620": {"system": "SW-620"}, "TK-10": {"system": "TK-10"}, "U-251": {"system": "U-251"}, "UACC-257": {"system": "UACC-257"}, "UACC-62": {"system": "UACC-62"}, "UO-31": {"system": "UO-31"}}, "note": "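Growth conditions: 96-well plates. Treatment: test compound, 48 hours, 5 concentrations. Analysis: linear interpolation between bracketing concentrations; unreached endpoints set to highest concentration. At the GI50, growth is halved.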 Activity calls are given as the source filed them. Rule as the data show it: active = GI50 up to about 1.1 µM and inactive = higher.", "data": [{"smiles": "O=C(/C=C/c1ccccc1Cl)c1ccccc1Cl", "values": [{"measurement": "GI50", "setting": "786-0", "value": "15.2 µM (inactive)"}, {"measurement": "GI50", "setting": "A498", "value": "49.1 µM (inactive)"}, {"measurement": "GI50", "setting": "A549", "value": "30 µM (inactive)"}, {"measurement": "GI50", "setting": "ACHN", "value": "17.3 µM (inactive)"}, {"measurement": "GI50", "setting": "CAKI-1", "value": "17.6 µM (inactive)"}, {"measurement": "GI50", "setting": "CCRF-CEM", "value": "20.4 µM (inactive)"}, {"measurement": "GI50", "setting": "COLO 205", "value": "21.4 µM (inactive)"}, {"measurement": "GI50", "setting": "DLD-1", "value": "17.5 µM (inactive)"}, {"measurement": "GI50", "setting": "DMS-114", "value": "19.9 µM (inactive)"}, {"measurement": "GI50", "setting": "DMS-273", "value": "16.9 µM (inactive)"}, {"measurement": "GI50", "setting": "EKVX", "value": "22.4 µM (inactive)"}, {"measurement": "GI50", "setting": "HCC 2998", "value": "21.6 µM (inactive)"}, {"measurement": "GI50", "setting": "HCT-116", "value": "14.6 µM (inactive)"}, {"measurement": "GI50", "setting": "HCT-15", "value": 14.8, "unit": "µM"}, {"measurement": "GI50", "setting": "HL-60", "value": "22.4 µM (inactive)"}, {"measurement": "GI50", "setting": "HOP-18", "value": "28.1 µM (inactive)"}, {"measurement": "GI50", "setting": "HOP-62", "value": "47.8 µM (inactive)"}, {"measurement": "GI50", "setting": "HOP-92", "value": "17.1 µM (inactive)"}, {"measurement": "GI50", "setting": "HT-29", "value": "18.8 µM (inactive)"}, {"measurement": "GI50", "setting": "IGROV-1", "value": "17.3 µM (inactive)"}, {"measurement": "GI50", "setting": "K562", "value": "21 µM (inactive)"}, {"measurement": "GI50", "setting": "KM-20L2", "value": "18.1 µM (inactive)"}, {"measurement": "GI50", "setting": "KM12", "value": "15.5 µM (inactive)"}, {"measurement": "GI50", "setting": "LXFL 529", "value": "17.2 µM (inactive)"}, {"measurement": "GI50", "setting": "M14", "value": "22.3 µM (inactive)"}, {"measurement": "GI50", "setting": "M19-MEL", "value": "25.8 µM (inactive)"}, {"measurement": "GI50", "setting": "MOLT-4", "value": "23.8 µM (inactive)"}, {"measurement": "GI50", "setting": "Malme-3M", "value": "31.8 µM (inactive)"}, {"measurement": "GI50", "setting": "NCI-H226", "value": "45.9 µM (inactive)"}, {"measurement": "GI50", "setting": "NCI-H23", "value": "21.2 µM (inactive)"}, {"measurement": "GI50", "setting": "NCI-H460", "value": "19.2 µM (inactive)"}, {"measurement": "GI50", "setting": "NCI-H522", "value": "19 µM (inactive)"}, {"measurement": "GI50", "setting": "OVCAR-3", "value": "18.9 µM (inactive)"}, {"measurement": "GI50", "setting": "OVCAR-4", "value": "20.7 µM (inactive)"}, {"measurement": "GI50", "setting": "OVCAR-5", "value": "21.1 µM (inactive)"}, {"measurement": "GI50", "setting": "OVCAR-8", "value": "17.3 µM (inactive)"}, {"measurement": "GI50", "setting": "RPMI-8226", "value": "16 µM (inactive)"}, {"measurement": "GI50", "setting": "SF-268", "value": "23.4 µM (inactive)"}, {"measurement": "GI50", "setting": "SF-295", "value": "22.6 µM (inactive)"}, {"measurement": "GI50", "setting": "SF-539", "value": "17.6 µM (inactive)"}, {"measurement": "GI50", "setting": "SK-MEL-28", "value": "19.1 µM (inactive)"}, {"measurement": "GI50", "setting": "SK-MEL-5", "value": "31.6 µM (inactive)"}, {"measurement": "GI50", "setting": "SK-OV-3", "value": "72.6 µM (inactive)"}, {"measurement": "GI50", "setting": "SN12C", "value": "20.6 µM (inactive)"}, {"measurement": "GI50", "setting": "SNB-19", "value": "15.7 µM (inactive)"}, {"measurement": "GI50", "setting": "SNB-75", "value": "30.3 µM (inactive)"}, {"measurement": "GI50", "setting": "SNB-78", "value": "22.4 µM (inactive)"}, {"measurement": "GI50", "setting": "SW-620", "value": "12.6 µM (inactive)"}, {"measurement": "GI50", "setting": "TK-10", "value": "37.5 µM (inactive)"}, {"measurement": "GI50", "setting": "U-251", "value": "16.3 µM (inactive)"}, {"measurement": "GI50", "setting": "UACC-257", "value": "19.8 µM (inactive)"}, {"measurement": "GI50", "setting": "UACC-62", "value": "16.7 µM (inactive)"}, {"measurement": "GI50", "setting": "UO-31", "value": "15.9 µM (inactive)"}]}]}
